# Key:
# Assay in all cases: [3H]choline uptake in transfected HEK293 cells
# Assay type in all cases: cell-based
# [1] = molecular target: T1, XeMfsd7c (Xenopus tropicalis, UniProt Q28EC5); conditions: 100 µM choline, DMEM with 10% FBS, 37 °C, 1 h; labelled compound
# T1 construct: gene flvcr2
# T1 sequence (Q28EC5 1-494): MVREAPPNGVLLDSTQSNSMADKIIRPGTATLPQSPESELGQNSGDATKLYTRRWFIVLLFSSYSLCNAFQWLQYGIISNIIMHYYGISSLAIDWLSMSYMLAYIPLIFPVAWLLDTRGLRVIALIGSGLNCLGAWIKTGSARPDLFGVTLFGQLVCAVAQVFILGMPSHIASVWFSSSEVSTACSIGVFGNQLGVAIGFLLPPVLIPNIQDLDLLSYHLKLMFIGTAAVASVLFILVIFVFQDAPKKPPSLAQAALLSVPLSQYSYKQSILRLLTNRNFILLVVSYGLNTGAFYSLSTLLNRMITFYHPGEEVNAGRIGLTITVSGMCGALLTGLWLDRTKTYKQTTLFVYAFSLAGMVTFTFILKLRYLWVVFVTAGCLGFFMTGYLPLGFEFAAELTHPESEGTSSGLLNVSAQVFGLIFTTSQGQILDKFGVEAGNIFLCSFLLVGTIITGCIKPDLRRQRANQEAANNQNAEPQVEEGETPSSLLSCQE
# [2] = molecular target: T2, MeMfsd7c (Oryzias latipes, UniProt H2LZ31); conditions: 100 µM choline, DMEM with 10% FBS, 37 °C, 1 h; labelled compound
# T2 construct: gene flvcr2b
# T2 sequence (H2LZ31 1-532): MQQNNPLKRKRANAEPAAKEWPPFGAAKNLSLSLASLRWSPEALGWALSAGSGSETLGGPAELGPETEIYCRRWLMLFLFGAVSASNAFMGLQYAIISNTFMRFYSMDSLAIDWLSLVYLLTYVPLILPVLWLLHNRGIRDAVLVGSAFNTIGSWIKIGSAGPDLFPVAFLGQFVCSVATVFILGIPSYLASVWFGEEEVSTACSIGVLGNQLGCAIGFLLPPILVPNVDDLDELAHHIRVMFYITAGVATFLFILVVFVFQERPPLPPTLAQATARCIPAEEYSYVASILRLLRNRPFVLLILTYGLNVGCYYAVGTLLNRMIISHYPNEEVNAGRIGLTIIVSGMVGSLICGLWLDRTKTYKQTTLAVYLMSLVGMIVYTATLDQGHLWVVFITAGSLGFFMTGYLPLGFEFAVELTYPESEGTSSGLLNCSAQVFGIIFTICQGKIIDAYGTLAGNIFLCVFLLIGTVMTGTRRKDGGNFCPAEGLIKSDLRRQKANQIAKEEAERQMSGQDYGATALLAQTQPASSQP
# [3] = molecular target: T3, DaMfsd7c_a (Danio rerio, UniProt A0A0R4ILB2); conditions: 100 µM choline, DMEM with 10% FBS, 37 °C, 1 h; labelled compound
# T3 construct: gene flvcr2a
# T3 sequence (A0A0R4ILB2 1-470): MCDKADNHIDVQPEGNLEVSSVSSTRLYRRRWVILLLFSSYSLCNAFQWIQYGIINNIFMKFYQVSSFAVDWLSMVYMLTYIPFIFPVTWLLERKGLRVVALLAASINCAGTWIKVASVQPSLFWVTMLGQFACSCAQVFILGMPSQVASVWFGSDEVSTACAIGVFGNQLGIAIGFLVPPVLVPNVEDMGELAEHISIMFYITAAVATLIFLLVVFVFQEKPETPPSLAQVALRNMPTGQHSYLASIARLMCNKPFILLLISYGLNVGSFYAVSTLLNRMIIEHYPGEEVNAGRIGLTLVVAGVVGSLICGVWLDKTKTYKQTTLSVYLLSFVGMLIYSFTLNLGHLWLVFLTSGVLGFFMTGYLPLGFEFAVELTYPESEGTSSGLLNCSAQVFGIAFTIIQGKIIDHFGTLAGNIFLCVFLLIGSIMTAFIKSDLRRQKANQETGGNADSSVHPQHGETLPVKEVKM
# [4] = molecular target: T4, DaMfsd7c_b (Danio rerio, UniProt A0A8M9Q308); conditions: 100 µM choline, DMEM with 10% FBS, 37 °C, 1 h; labelled compound
# T4 construct: gene flvcr2b
# T4 sequence (A0A8M9Q308 1-485): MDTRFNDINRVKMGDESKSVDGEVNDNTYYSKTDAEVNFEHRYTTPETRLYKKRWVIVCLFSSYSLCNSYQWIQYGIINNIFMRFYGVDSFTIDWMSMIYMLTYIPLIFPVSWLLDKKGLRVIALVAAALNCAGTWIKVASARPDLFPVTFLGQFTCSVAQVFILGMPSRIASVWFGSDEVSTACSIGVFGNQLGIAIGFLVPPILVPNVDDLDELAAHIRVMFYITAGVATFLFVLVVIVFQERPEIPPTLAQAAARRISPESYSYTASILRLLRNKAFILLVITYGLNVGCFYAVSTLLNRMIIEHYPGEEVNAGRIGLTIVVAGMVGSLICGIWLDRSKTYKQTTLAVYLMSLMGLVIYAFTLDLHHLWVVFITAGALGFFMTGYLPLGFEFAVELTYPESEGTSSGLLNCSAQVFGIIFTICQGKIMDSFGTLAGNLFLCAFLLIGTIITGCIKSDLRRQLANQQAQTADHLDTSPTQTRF
# [5] = substrate: C[N+](C)(C)CCO; conditions: co-expressed human choline kinase A (hChKA), DMEM with 10% FBS, 37 °C, 60 min, labelled compound
# Text: [3H]choline uptake in transfected HEK293 cells on hMfsd7c (human MFSD7c, FLVCR2) | The kinetics (Km) and Vmax for choline import by human Mfsd7c under this condition
# [6] = substrate: C[N+](C)(C)CCO; conditions: co-expressed human choline kinase A (hChKA), DMEM with 10% FBS, 37 °C, 60 min, labelled compound; remark: listed apart in the source
# Text: [3H]choline uptake in transfected HEK293 cells on hMfsd7c (human MFSD7c, FLVCR2) | The Km and Vmax for importing choline by S203Y mutant under this condition were […]
molecule,measurement,setting,value
C[N+](C)(C)CCO [choline],[3H]choline uptake in transfected HEK293 cells,[1],these MFSD7c orthologs also exhibited choline transport activity
same,[3H]choline uptake in transfected HEK293 cells,[2],these MFSD7c orthologs also exhibited choline transport activity
same,[3H]choline uptake in transfected HEK293 cells,[3],these MFSD7c orthologs also exhibited choline transport activity
same,[3H]choline uptake in transfected HEK293 cells,[4],these MFSD7c orthologs also exhibited choline transport activity
"hMfsd7c (human MFSD7c, FLVCR2) (Homo sapiens) (protein, full-length cDNA in pcDNA3.1, transiently expressed in HEK293 cells) MVNEGPNQEESDDTPVPESALQADPSVSVHPSVSVHPSVSINPSVSVHPSSSAHPSALAQPSGLAHPSSSGPEDLSVIKVSRRRWAVVLVFSCYSMCNSFQWIQYGSINNIFMHFYGVSAFAIDWLSMCYMLTYIPLLLPVAWLLEKFGLRTIALTGSALNCLGAWVKLGSLKPHLFPVTVVGQLICSVAQVFILGMPSRIASVWFGANEVSTACSVAVFGNQLGIAIGFLVPPVLVPNIEDRDELAYHISIMFYIIGGVATLLLILVIIVFKEKPKYPPSRAQSLSYALTSPDASYLGSIARLFKNLNFVLLVITYGLNAGAFYALSTLLNRMVIWHYPGEEVNAGRIGLTIVIAGMLGAVISGIWLDRSKTYKETTLVVYIMTLVGMVVYTFTLNLGHLWVVFITAGTMGFFMTGYLPLGFEFAVELTYPESEGISSGLLNISAQVFGIIFTISQGQIIDNYGTKPGNIFLCVFLTLGAALTAFIKADLRRQKANKETLENKLQEEEEESNTSKVPTAVSEDHL",Km,[5],100 µM
"hMfsd7c (human MFSD7c, FLVCR2) (Homo sapiens; S203Y) (protein, full-length cDNA in pcDNA3.1, transiently expressed in HEK293 cells) MVNEGPNQEESDDTPVPESALQADPSVSVHPSVSVHPSVSINPSVSVHPSSSAHPSALAQPSGLAHPSSSGPEDLSVIKVSRRRWAVVLVFSCYSMCNSFQWIQYGSINNIFMHFYGVSAFAIDWLSMCYMLTYIPLLLPVAWLLEKFGLRTIALTGSALNCLGAWVKLGSLKPHLFPVTVVGQLICSVAQVFILGMPSRIAYVWFGANEVSTACSVAVFGNQLGIAIGFLVPPVLVPNIEDRDELAYHISIMFYIIGGVATLLLILVIIVFKEKPKYPPSRAQSLSYALTSPDASYLGSIARLFKNLNFVLLVITYGLNAGAFYALSTLLNRMVIWHYPGEEVNAGRIGLTIVIAGMLGAVISGIWLDRSKTYKETTLVVYIMTLVGMVVYTFTLNLGHLWVVFITAGTMGFFMTGYLPLGFEFAVELTYPESEGISSGLLNISAQVFGIIFTISQGQIIDNYGTKPGNIFLCVFLTLGAALTAFIKADLRRQKANKETLENKLQEEEEESNTSKVPTAVSEDHL",Km,[6],1197 µM

# Reference: PMC10907603, “MFSD7c functions as a transporter of choline at the blood–brain barrier” (Cell Research, 2024)
